Two compounds from US12227488B2, “Small molecule degraders of Helios and methods of use” (DANA-FARBER CANCER INSTITUTE, INC., priority 2018, dated 2025) can be followed below.

Broadly, the DC50 is the concentration giving 50% degradation. Lower therefore signals degradation at low concentration.

In experiment [1] the target is T1, GSPT1 (Homo sapiens, UniProt P15170+Q96SW2). Nature of the experiment: Cellular degradation assay, eGFP-GSPT1 fusion with mCherry reporter in Flp-In 293 cells. Particulars: for GSPT1 GFP/RFP Relative Abundance: 5 h incubation, n=1. It is filed as cell-based. More on the design: expressed in transfected cells; host or cells: Flp-In 293. In short, it runs like this: (§1)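 Flp-In 293 cells stably expressing eGFP-tagged degron fusions with P2A-mCherry reporter were treated with compound titrations (0.5% DMSO) for 5 hours. Imaging quantified GFP-positive/mCherry-positive cell fraction per well; DC50 at 5 h from nonlinear variable-slope fit.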
T1 sequence (P15170 whole entry, the tested form may be a part): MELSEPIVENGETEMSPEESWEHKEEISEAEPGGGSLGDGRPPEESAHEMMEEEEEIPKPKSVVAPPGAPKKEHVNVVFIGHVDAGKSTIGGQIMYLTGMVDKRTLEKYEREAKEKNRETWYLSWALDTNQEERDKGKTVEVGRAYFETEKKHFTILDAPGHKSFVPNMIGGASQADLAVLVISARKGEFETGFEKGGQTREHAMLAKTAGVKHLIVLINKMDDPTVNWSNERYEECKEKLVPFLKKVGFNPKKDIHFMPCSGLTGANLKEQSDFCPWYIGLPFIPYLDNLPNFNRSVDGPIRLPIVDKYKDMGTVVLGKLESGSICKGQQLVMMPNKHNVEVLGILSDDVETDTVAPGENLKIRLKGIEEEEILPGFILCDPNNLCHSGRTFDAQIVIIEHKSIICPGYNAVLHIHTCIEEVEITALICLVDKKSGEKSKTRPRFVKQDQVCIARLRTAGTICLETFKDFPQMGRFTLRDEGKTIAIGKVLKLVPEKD
T1 sequence (Q96SW2 whole entry, the tested form may be a part): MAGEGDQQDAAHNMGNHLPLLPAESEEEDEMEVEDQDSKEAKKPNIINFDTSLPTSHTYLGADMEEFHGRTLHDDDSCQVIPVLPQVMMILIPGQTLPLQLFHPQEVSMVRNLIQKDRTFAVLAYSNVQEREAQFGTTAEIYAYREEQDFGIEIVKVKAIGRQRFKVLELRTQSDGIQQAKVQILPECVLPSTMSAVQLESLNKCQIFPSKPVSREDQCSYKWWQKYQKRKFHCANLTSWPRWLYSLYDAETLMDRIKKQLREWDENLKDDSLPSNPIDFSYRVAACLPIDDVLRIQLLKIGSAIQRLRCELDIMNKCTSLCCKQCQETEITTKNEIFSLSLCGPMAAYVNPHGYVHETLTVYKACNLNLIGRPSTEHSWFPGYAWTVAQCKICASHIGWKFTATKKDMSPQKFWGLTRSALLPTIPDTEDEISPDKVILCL
T1 sequence (Q16531 whole entry partner, the tested form may be a part): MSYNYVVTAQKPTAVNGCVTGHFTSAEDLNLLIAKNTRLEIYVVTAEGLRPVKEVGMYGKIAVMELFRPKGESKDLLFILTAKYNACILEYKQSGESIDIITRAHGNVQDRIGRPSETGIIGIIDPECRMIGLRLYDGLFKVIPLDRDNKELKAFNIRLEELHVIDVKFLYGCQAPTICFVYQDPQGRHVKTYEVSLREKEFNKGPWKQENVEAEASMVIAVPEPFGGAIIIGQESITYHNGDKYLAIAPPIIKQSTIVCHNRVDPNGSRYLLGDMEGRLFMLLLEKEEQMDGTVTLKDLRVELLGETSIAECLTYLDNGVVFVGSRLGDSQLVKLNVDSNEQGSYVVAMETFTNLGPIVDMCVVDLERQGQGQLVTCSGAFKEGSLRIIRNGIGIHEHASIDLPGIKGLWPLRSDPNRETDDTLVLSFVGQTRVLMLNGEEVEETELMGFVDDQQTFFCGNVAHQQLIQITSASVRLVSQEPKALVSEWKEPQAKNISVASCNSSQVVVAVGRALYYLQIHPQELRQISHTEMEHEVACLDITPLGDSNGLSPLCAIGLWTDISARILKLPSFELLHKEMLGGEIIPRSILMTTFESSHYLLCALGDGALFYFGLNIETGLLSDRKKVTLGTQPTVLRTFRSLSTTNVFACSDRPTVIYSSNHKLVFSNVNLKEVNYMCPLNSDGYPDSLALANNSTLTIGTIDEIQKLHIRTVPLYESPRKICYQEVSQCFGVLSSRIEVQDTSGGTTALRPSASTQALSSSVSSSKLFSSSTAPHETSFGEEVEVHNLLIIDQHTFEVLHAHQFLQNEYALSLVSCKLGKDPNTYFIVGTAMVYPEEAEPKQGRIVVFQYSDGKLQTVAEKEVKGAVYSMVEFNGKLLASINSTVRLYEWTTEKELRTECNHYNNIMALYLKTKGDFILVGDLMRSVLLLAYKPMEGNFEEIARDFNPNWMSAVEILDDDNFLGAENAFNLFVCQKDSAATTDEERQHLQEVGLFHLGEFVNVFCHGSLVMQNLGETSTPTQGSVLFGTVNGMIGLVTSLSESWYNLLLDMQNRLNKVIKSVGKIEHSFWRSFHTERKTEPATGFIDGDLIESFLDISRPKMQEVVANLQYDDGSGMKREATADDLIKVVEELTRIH

Experiment [2] has as its target T2, Helios (Homo sapiens, UniProt Q96SW2+Q9UKS7).
T2 construct: endogenous in cells; host or cells: Jurkat
Kind of experiment: Immunoblot for Helios in Jurkat cells. It is filed as cell-based. To be noted: for Helios degradation on co-treatment with proteasome or NAE inhibitor: Jurkat cells, 1 μM compound with 1 μM bortezomib, MLN4924 or carfilzomib, 4 h; for Helios degradation (immunoblot): wildtype or Crbn−/− Jurkat cells, 4 h treatment. The procedure:
(§2) A focused library of imide analogs was synthesized and assessed for their ability to induce dimerization between CRBN and Helios in a time-resolved fluorescence energy transfer (TR-FRET) assay (FIG. 1A).
(§3) Cells were lysed in M-PER buffer (Thermo Scientific) containing protease/phosphatase inhibitor cocktail (Roche). Protein concentration was measured using a BCA assay (Pierce™) Equivalent amounts of each sample were loaded on 4-12% Bis-Tris gels (Invitrogen™) transferred to nitrocellulose membranes, and immunoblotted with the indicated antibodies. IRDye®800-labeled goat anti-rabbit IgG and IRDye®680-labeled goat anti-mouse IgG (LI-COR®) secondary antibodies were purchased from LI-COR®, and membranes were detected on an Odyssey® detection system (LI-COR® Biosciences).
Cells were lysed in M-PER buffer (Thermo Scientific) containing protease/phosphatase inhibitor cocktail (Roche). Protein concentration was measured using a BCA assay (Pierce™) Equivalent amounts of each sample were loaded on 4-12% Bis-Tris gels (Invitrogen™) transferred to nitrocellulose membranes, and immunoblotted with the indicated antibodies. IRDye®800-labeled goat anti-rabbit IgG and IRDye®680-labeled goat anti-mouse IgG (LI-COR®) secondary antibodies were purchased from LI-COR®, and membranes were detected on an Odyssey detection system (LI-COR® Biosciences).
A general note: A western blot detects proteins with antibodies after separation by electrophoresis.

The target in another experiment is T3, IKZF1 (Homo sapiens, UniProt Q13422).
T3 construct: expressed in transfected cells; host or cells: Flp-In 293
T3 sequence (Q13422 83-213 isoform Q13422-7 limits assumed): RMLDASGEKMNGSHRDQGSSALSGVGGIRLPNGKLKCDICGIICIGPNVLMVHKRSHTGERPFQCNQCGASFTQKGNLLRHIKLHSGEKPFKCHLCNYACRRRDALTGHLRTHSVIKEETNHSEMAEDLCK
T3 sequence (Q96SW2 whole entry partner): as the sequence (Q96SW2 whole entry, the tested form may be a part) above
T3 sequence (Q16531 2-1140 partner limits assumed): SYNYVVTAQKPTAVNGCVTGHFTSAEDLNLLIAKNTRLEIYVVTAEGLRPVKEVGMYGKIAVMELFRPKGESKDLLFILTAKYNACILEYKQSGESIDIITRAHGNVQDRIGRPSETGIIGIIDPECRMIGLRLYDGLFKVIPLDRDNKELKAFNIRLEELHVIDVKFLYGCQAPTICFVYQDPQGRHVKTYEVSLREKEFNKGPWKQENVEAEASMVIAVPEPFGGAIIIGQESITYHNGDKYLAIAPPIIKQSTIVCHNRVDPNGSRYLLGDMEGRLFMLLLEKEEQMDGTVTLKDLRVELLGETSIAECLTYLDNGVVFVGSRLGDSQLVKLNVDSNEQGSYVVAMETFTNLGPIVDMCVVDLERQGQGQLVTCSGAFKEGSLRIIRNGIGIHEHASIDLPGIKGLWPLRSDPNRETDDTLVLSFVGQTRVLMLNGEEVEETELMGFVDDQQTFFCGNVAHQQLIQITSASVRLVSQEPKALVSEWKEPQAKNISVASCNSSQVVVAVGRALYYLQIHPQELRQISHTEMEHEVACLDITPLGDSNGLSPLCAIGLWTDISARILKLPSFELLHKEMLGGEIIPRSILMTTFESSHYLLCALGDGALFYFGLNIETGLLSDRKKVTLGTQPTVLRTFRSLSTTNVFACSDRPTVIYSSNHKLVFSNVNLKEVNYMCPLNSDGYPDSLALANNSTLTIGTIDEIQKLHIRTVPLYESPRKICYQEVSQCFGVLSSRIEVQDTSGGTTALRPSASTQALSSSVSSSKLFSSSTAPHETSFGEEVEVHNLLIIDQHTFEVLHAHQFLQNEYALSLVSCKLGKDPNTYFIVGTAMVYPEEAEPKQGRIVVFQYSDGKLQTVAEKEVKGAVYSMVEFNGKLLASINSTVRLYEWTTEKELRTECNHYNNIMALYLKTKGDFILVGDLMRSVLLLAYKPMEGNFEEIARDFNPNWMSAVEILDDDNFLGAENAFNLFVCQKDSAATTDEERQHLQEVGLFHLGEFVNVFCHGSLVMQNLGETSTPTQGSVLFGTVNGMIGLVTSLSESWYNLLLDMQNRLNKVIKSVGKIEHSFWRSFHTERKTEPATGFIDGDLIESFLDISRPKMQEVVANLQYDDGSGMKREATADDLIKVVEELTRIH
Kind of experiment: Cellular degradation assay, eGFP-IKZF1Δ fusion with mCherry reporter in Flp-In 293 cells. Type of experiment: cell-based. Particulars: for IKZF1 GFP/RFP Relative Abundance: 5 h incubation, n=1. In a few lines: as §1

Experiment [3] addresses T4, Ikaros (Homo sapiens, UniProt Q13422+Q96SW2).
T4 construct: endogenous in cells; host or cells: Jurkat
Nature of the experiment: Immunoblot for Ikaros in Jurkat cells. It is filed as cell-based. To be noted: 4 h treatment. As to the method: as §2, §3

The next experiment deals with T5, CRBN and Helios (IKZF2) (Homo sapiens, UniProt Q96SW2+Q9UKS7).
T5 construct: His (N); Strep (N)
T5 sequence (Q96SW2 whole entry): as the sequence (Q96SW2 whole entry, the tested form may be a part) above
T5 sequence (Q9UKS7 whole entry): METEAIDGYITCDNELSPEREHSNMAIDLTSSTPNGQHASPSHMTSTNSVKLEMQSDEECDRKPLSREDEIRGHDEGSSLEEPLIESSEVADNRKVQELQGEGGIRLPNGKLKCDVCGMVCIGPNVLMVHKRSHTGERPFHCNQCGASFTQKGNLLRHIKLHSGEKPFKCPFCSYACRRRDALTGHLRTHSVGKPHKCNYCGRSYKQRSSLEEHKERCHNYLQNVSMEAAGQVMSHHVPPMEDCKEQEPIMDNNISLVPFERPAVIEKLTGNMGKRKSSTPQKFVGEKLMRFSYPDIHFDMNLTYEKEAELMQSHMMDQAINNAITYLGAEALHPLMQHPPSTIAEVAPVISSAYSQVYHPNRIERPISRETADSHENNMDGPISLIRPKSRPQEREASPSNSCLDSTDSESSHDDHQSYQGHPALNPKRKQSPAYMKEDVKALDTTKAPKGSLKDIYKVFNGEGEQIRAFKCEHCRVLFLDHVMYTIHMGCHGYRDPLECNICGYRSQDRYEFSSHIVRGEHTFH
Kind of experiment: TR-FRET dimerization assay (CRBN-IKZF2 ternary complex formation). Type of experiment: binding. To be noted: for TR-FRET signal (520/490 ratio), CRBN-Helios dimerization, in words: FIG. 1B, 2A, 5; for TR-FRET-IKZF2 (Normalized to CC-885): n=1. In a few lines: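 BODIPY-labeled DDB1ΔB-CRBN and in vitro biotinylated IKZF2 were treated with increasing compound concentrations plus tracer Terbium-Streptavidin and incubated 15 min at rt. Recruitment was quantified as the 520/490 nm TR-FRET ratio; values are single measurements (n=1), each averaged from at least three technical replicates.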
Background: Time-resolved FRET reads energy transfer from a long-lived donor to a nearby acceptor.

The target of experiment [4] is T6, Helios (Mus musculus, UniProt P81183).
T6 construct: endogenous in cells; host or cells: Hoxb8-immortalized myeloid progenitor cells from mice
Nature of the experiment: Immunoblot for Helios in Hoxb8-immortalized myeloid progenitor cells (wildtype or Crbn^I391V/I391V). It is filed as cell-based, murine. Particulars: Hoxb8 myeloid progenitor cells from wildtype or Crbn^I391V/I391V mice, 18 h. The procedure:
IKZF1/3 are not susceptible to IMiD-mediated degradation in murine cells, and this can be rescued by mutating a single amino acid on the surface of murine CRBN (Ile 391) to the analogous human residue (Val). To determine whether Helios follows a similar pattern, Hoxb8-immortalized myeloid progenitor cells derived from wildtype or Crbn^I391V/I391V mice were treated with compound 54. […] Thus, Helios is degradable in murine cells only if they express ‘humanized’ CRBN.

Another experiment deals with Ikzf2 mRNA. Nature of the experiment: qPCR for Ikzf2 mRNA in Jurkat cells. It is filed as cell-based. Particulars: 4 h, n=3. As to the method: FIG. 2A is a graph of 520/490 TR-FRET ratios. […] FIG. 2C is immunoblots from wildtype or Crbn−/− Jurkat cells treated with compound 54 for 4 h. FIG. 2D is immunoblots from Jurkat cells co-treated with compound 54 (1 μM) and bortezomib (bort.; 1 μM) or MLN4924 (1 μM) for 4 h. FIG. 2E is a bar graph showing quantitative polymerase chain reaction (qPCR) for Ikzf2 messenger ribonucleic acid (mRNA) from Jurkat cells treated for 4 h (n=3; N.S.=not significant).
(In general: Real-time PCR tracks product formation cycle by cycle.)

The test system of a further experiment is IKZF2. Kind of experiment: Cellular degradation assay, eGFP-IKZF2Δ fusion with mCherry reporter in Flp-In 293 cells. It is filed as cell-based. To be noted: for IKZF2 GFP/RFP Relative Abundance: 5 h incubation, n=1. In a few lines:
as §1

For experiment [5], the system named is Foxp3+ regulatory T cells. Nature of the experiment: IFNγ production of isolated Crbn^I391V/I391V Tregs after PMA/ionomycin restimulation. It is filed as cell-based, murine. To be noted: 2 μM, 4 days, restimulated with PMA/ionomycin 5 h. The procedure: (§4) FIG. 9A-FIG. 9C are a series of graphs showing that Helios degradation in Tregs permits IFNγ production. Isolated Crbn^I391V/I391V Tregs were treated with 2 μM of compound 69, 5 ng/mL IL-2, and 20 ng/mL IL-4 for 4 days and then restimulated with PMA/ionomycin for 5 h. […] FIG. 9B is a bar graph showing the percent increase of IFNγ with treatment of compound 69.
(§5) Foxp3+ regulatory T cells were isolated by sorting for CD4+ CD25+ T cells from Crbn^I391V/I391V spleens, treated with 2 μM of compound 69, 5 ng/mL IL-2, and 20 ng/mL IL4 for 4 days and then restimulated with PMA/ionomycin for 5 h. Cells were then fixed/permeabilized and stained with fluorochrome-coupled antibodies. […] FIG. 9B is a bar graph showing the percent increase of IFNγ with treatment of compound 69.

The target in experiment [6] is T7, Helios (Mus musculus, UniProt P81183+Q8C7D2, I391V).
T7 construct: from tissue; host or cells: spleen (T cell subpopulations / CD4+ CD25+ Tregs) of Crbn I391V/I391V mice
Nature of the experiment: Helios levels in isolated Crbn^I391V/I391V Tregs. Type of experiment: cell-based, murine. Particulars: 2 μM, IL-2 and IL-4, 4 days. As to the method: as §4, §5

In experiment [7] the target is T1, GSPT1. Kind of experiment: Immunoblot for GSPT1 in Jurkat cells. Type of experiment: cell-based. Particulars: wildtype or Crbn−/− Jurkat cells, 4 h treatment. The arrangement: expressed in transfected cells. The procedure:
as §2, §3

Experiment [8] has as its target T8, Ikaros (Mus musculus, UniProt Q03267+Q8C7D2, I391V).
T8 construct: from tissue; host or cells: spleen (T cell subpopulations) of Crbn I391V/I391V mice
Kind of experiment: Flow cytometry of Ikaros in splenic T cell subpopulations from Crbn^I391V/I391V mice. It is filed as cell-based, murine. Particulars: 1 μM, 16 h. The procedure:
(§6) FIG. 8A-FIG. 8B are a series of graphs depicting levels of Ikaros and Helios that were assessed by flow cytometry. […] FIG. 8B depicts levels of Ikaros and Helios of splenic T cell subpopulations from Crbn^I391V/I391V mice that were treated with 1 μM of indicated compounds for 16 h.
(§7) Splenocytes were fixed/permeabilized and stained with fluorochrome-coupled antibodies. FACS plots of murine splenocytes were stained for TCRβ, CD4, CD8, and FoxP3 (FIG. 8A).

For experiment [9], the target named is T7, Helios. Nature of the experiment: Flow cytometry of Helios in splenic T cell subpopulations from Crbn^I391V/I391V mice. Type of experiment: cell-based, murine. Particulars: 1 μM, 16 h. The procedure: as §6, §7
Setting [10] is: compound concentration 2.00E−05.
The mark [11] stands for this setting: compound concentration 2.00E−06.
Setting [12] is: compound concentration 2.00E−07.
Where [13] appears, read: compound concentration 6.6667E−05.
Setting [14] is: compound concentration 6.6667E−06.
Where [15] appears, read: compound concentration 6.6667E−07 (667 nM).
Where [16] appears, read: half degradation at 5 h (DC50,5 h), triplicate, 11 point dose response.

Where only a bound is given, the exact number is not on record here.

T2 sequence (Q9UKS7 whole entry): as above
T2 sequence (Q96SW2 whole entry): as the sequence (Q96SW2 whole entry, the tested form may be a part) above
T2 sequence (Q16531 whole entry partner): as the sequence (Q16531 whole entry partner, the tested form may be a part) above
T4 sequence (Q13422 whole entry): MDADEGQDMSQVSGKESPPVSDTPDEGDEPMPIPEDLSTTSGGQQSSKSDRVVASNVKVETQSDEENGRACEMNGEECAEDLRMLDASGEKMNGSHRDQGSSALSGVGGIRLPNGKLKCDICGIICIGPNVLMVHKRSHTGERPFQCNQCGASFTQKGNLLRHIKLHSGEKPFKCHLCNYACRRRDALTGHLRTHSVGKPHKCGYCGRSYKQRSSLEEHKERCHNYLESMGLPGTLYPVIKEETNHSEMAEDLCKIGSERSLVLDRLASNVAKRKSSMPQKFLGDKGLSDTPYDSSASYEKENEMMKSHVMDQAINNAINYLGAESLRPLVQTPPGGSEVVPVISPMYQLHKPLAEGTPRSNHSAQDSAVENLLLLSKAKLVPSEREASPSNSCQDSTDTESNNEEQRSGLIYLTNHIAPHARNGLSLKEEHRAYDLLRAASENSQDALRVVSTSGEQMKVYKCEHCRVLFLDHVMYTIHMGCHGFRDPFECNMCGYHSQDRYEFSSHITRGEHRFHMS
T4 sequence (Q96SW2 whole entry): as the sequence (Q96SW2 whole entry, the tested form may be a part) above
T4 sequence (Q16531 whole entry partner): as the sequence (Q16531 whole entry partner, the tested form may be a part) above

Regarding `Cc1ccc(NC(=O)NC(C)c2cccc(NC3=CC(=O)N(C4CCC(=O)NC4=O)C3=O)c2)cc1Cl` (stereo not drawn) [Compound 54, 1-(3-chloro-4-methylphenyl)-3-(1-(3-((1-(2,6-dioxopiperidin-3-yl)-2,5-dioxo-2,5-dihydro-1H-pyrrol-3-yl)amino)phenyl)ethyl)urea], the results for the “GSPT1 GFP/RFP Relative Abundance” value on GSPT1 [1] (setting [10]), on GSPT1 [1] (setting [11]) and on GSPT1 [1] (setting [12]) were 0.420, 0.638 and 0.567, respectively. Also, the “Helios degradation on co-treatment with proteasome or NAE inhibitor” value at Helios [2] is given as “both prevented Helios degradation”. Besides, the “Helios degradation (immunoblot)” value on Helios [2] was “induced CRBN-dependent Helios degradation”. The “IKZF1 GFP/RFP Relative Abundance” value at IKZF1 (setting [10]) is given as 0.119; on IKZF1 (setting [11]), 0.106; at IKZF1 (setting [12]) it was 0.102. The “Ikaros degradation (immunoblot)” value on Ikaros [3] was “lost some degradation activity against Ikaros in comparison to compound 44”. Further, on CRBN and Helios (IKZF2), the “TR-FRET signal (520/490 ratio), CRBN-Helios dimerization, in words” value is “scored even higher than compound 44”. Also, the “TR-FRET-IKZF2 (Normalized to CC-885)” value amounted to 1.729 on CRBN and Helios (IKZF2) (setting [13]); 1.629 at CRBN and Helios (IKZF2) (setting [14]); 1.382 at CRBN and Helios (IKZF2) (setting [15]). The “Helios degradation in murine cells” value at Helios [4] is on record as “Helios was only degraded in Crbn^I391V/I391V cells”. Moreover, the “IKZF2 mRNA levels (qPCR)” value in the experiment on Ikzf2 mRNA is “did not affect mRNA levels of IKZF2”. For the same compound, the results for the “IKZF2 GFP/RFP Relative Abundance” value in the experiment with IKZF2 (setting [10]), in the experiment with IKZF2 (setting [11]) and in the experiment on IKZF2 (setting [12]) were 0.030, 0.024 and 0.027, respectively.

Take `Cc1ccc(NC(=O)NC(C)(C)c2cccc(NC3=CC(=O)N(C4CCC(=O)NC4=O)C3=O)c2)cc1Cl` (stereo not drawn) [Compound 69, 1-(3-chloro-4-methylphenyl)-3-(2-(3-((1-(2,6-dioxopiperidin-3-yl)-2,5-dioxo-2,5-dihydro-1H-pyrrol-3-yl)amino)phenyl)propan-2-yl)urea]: the DC50 at GSPT1 [1] (setting [16]) is above 1000 nM; at IKZF1 (setting [16]) it was 14 nM; in the experiment with IKZF2 (setting [16]) it was 3.6 nM. In addition, the IFNγ production result in experiment [5] is “increased production of IFNγ upon restimulation”. On Helios [2], the “Helios degradation on co-treatment with proteasome or NAE inhibitor” value is recorded as “Helios degradation is dependent on the proteasome”. Also, the “Helios degradation (immunoblot)” value on Helios [2] was “induced CRBN-dependent Helios degradation”. The “Helios degradation in isolated Tregs” value on Helios [6] is reported as “able to induce degradation of Helios in Tregs”. The “IKZF1 GFP/RFP Relative Abundance” value at IKZF1 (setting [10]) is 0.086; on IKZF1 (setting [11]), 0.140; on IKZF1 (setting [12]) it was 0.132. Besides, the “Ikaros degradation (immunoblot)” value at Ikaros [3] was “did not affect the stability of GSPT1 or Ikaros”. Also, the “TR-FRET signal (520/490 ratio), CRBN-Helios dimerization, in words” value at CRBN and Helios (IKZF2) was “induced higher TR-FRET signals than CC-885”. Also, the “TR-FRET-IKZF2 (Normalized to CC-885)” value on CRBN and Helios (IKZF2) (setting [13]) was 2.037; at CRBN and Helios (IKZF2) (setting [14]), 1.970; at CRBN and Helios (IKZF2) (setting [15]), 1.737. Besides, the “IKZF2 GFP/RFP Relative Abundance” value in the experiment with IKZF2 (setting [10]) is listed as 0.032; in the experiment with IKZF2 (setting [11]), 0.013; in the experiment on IKZF2 (setting [12]), 0.028. Also, the “GSPT1 stability (immunoblot)” value at GSPT1 [7] is given as “did not affect the stability of GSPT1 or Ikaros”. For the same compound, the “Ikaros degradation in regulatory T cells (flow cytometry)” value on Ikaros [8] is given as “not Ikaros”. Also, at Helios [9], the “Helios degradation in regulatory T cells (flow cytometry)” value is “capable of inducing degradation of Helios”.
